Data from US20190094246A1, “DETECTION OF NEURODEGENERATIVE DISEASES” (AMONETA DIAGNOSTICS SAS, priority 2016, published 2019).

Tests used:
[1] = test system: red blood cells (RBCs) from human subjects; assay: Dose-dependent staining of RBCs, flow cytometry (MEDFI); type: cell-based; conditions: 0.03, 0.1, 0.3, 1 and 3 μM; RBCs 200 000 cells/mL of 3 human subjects; channel FL1 (Ex. 1), FL3 (Ex. 9)
Description: The blood from an animal or a human subject is sampled in specific 5 mL tube, such as lithium-heparin tube. The blood is manually mixed by inversion before use.
Red blood cells (RBCs) are obtained from whole blood after centrifugation at 200 g for 10 minutes at room temperature. RBCs pellet down and segregate from white blood cells, platelets and plasma. 5 μL of RBCs are pipetted, diluted 1000 times in 5 mL of Flow cytometry buffer (FACS buffer: 150 mM of NaCl; 1 mM of D-Glucose; 5 mM of Na2HPO4; 0.5 mM CaCl2) and either numbered by manual counting on disposable Malassez-like counting cell (X100 Cellule Fast Read, Fisher Scientific, Ref #11762712) with a microscope or counted with Flow count Fluorospheres (Beckman, Ref 7547053) so as to obtain a cell concentration of stock solution to be used in the test. […]
From these different concentration stocks, the same quantity (4) of compounds at desired concentration to be tested is added to erythrocytes in each FACS vial to obtain the same % of DMSO (0.5% of DMSO) at the end. […] In all experiments, a control is performed with the final amount of compound solvent (DMSO alone, without test compound), in order to obtain the auto-fluorescence of the RBCs.
These fluorescences are detected by the gating of erythrocytes in a log FSC/log SSC plot. […]

[2] = test system: RBCs from transgenic APP/PS1 mice versus age-matched Wild-Type mice; assay: RBC staining in Alzheimer animal model, transgenic versus wild type; type: cell-based
Excerpt: Transgenic mice used in this study carry two mutations associated with early onset AD: mutant amyloid precursor protein (K670N and M671L) and mutant human presenilin 1 (M146V). These transgenic mice develop AD-related phenotype consisting in beta-amyloid peptide overproduction and formation of amyloid plaques in their brain.

COCCOCC#CB(C#CCOCCOC)n1c(C)cc(C)c1/C(=C1\N=C(C)C=C1C)c1ccc(C(=O)NCCCn2cc(C3=C(c4cn(C)c5ccccc45)C(=O)NC3=O)c3ccccc32)cc1 [Ex. 9]
staining of RBCs (index MEDFI) [1]: dose-dependent staining
discrimination between transgenic and wild type mice by RBC staining ([2]; 1 μM, 5 transgenic mice and 6 age-matched wild type mice): excellent accuracy
discrimination between the transgenic mouse group and control mouse group by RBC staining ([2]; concentration not given): good accuracy
